Source: ChEMBL document CHEMBL4673219, “Novel 5,6-disubstituted pyrrolo[2,3-d]pyrimidine derivatives as broad spectrum antiproliferative agents: Synthesis, cell based assays, kinase profile and molecular docking study” (Bioorg Med Chem, 2018)
Where “and” joins values, the source holds several entries; their conditions need not be identical. Equal entries are not always repeated.

How the values were obtained:
[1] = tested on: RXF 393; assay: Growth inhibition of human RXF 393 cells assessed as growth percentage at 10 uM incubated for 48 hrs by sulforhodamine B assay relative to control; assay type: functional; conditions: read-out: Activity
[2] = tested on: A498; assay: Growth inhibition of human A498 cells assessed as growth percentage at 10 uM incubated for 48 hrs by sulforhodamine B assay relative to control; assay type: functional; conditions: read-out: Activity
[3] = target: Fibroblast growth factor receptor 2 (Homo sapiens) (UniProt P21802); assay: Inhibition of human FGFR2 at 10 uM using myelin basic protein as substrate incubated for 40 mins in presence of [gamma33P]ATP by scintillation counting method relative to control
[4] = tested on: MDA-MB-468; assay: Growth inhibition of human MDA-MB-468 cells incubated for 48 hrs by sulforhodamine B assay; assay type: functional
[5] = tested on: Hs-578T; assay: Growth inhibition of human Hs-578T cells incubated for 48 hrs by sulforhodamine B assay; assay type: functional
[6] = tested on: MCF7; assay: Growth inhibition of human MCF7 cells incubated for 48 hrs by sulforhodamine B assay; assay type: functional
[7] = tested on: Malme-3M; assay: Growth inhibition of human Malme-3M cells incubated for 48 hrs by sulforhodamine B assay; assay type: functional; conditions: for GI50: 48 h
[8] = tested on: RPMI-8226; assay: Growth inhibition of human RPMI-8226 cells incubated for 48 hrs by sulforhodamine B assay; assay type: functional
[9] = tested on: MOLT-4; assay: Growth inhibition of human MOLT-4 cells incubated for 48 hrs by sulforhodamine B assay; assay type: functional
[10] = tested on: BT-549; assay: Growth inhibition of human BT-549 cells assessed as growth percentage at 100 uM incubated for 48 hrs by sulforhodamine B assay relative to control; assay type: functional; conditions: read-out: Activity
[11] = tested on: NCI/ADR-RES; assay: Growth inhibition of human NCI/ADR-RES cells assessed as growth percentage at 100 uM incubated for 48 hrs by sulforhodamine B assay relative to control; assay type: functional; conditions: read-out: Activity
[12] = tested on: UACC-62; assay: Growth inhibition of human UACC-62 cells assessed as growth percentage at 100 uM incubated for 48 hrs by sulforhodamine B assay relative to control; assay type: functional; conditions: read-out: Activity
[13] = tested on: SW-620; assay: Growth inhibition of human SW-620 cells assessed as growth percentage at 100 uM incubated for 48 hrs by sulforhodamine B assay relative to control; assay type: functional; conditions: read-out: Activity
[14] = tested on: HCT-15; assay: Growth inhibition of human HCT-15 cells assessed as growth percentage at 100 uM incubated for 48 hrs by sulforhodamine B assay relative to control; assay type: functional; conditions: read-out: Activity
[15] = tested on: MDA-MB-468; assay: Growth inhibition of human MDA-MB-468 cells assessed as growth percentage at 1 uM incubated for 48 hrs by sulforhodamine B assay relative to control; assay type: functional; conditions: read-out: Activity
[16] = tested on: MCF7; assay: Growth inhibition of human MCF7 cells assessed as growth percentage at 1 uM incubated for 48 hrs by sulforhodamine B assay relative to control; assay type: functional; conditions: read-out: Activity
[17] = tested on: UO-31; assay: Growth inhibition of human UO-31 cells assessed as growth percentage at 1 uM incubated for 48 hrs by sulforhodamine B assay relative to control; assay type: functional; conditions: read-out: Activity
[18] = tested on: SK-OV-3; assay: Growth inhibition of human SK-OV-3 cells assessed as growth percentage at 1 uM incubated for 48 hrs by sulforhodamine B assay relative to control; assay type: functional; conditions: read-out: Activity
[19] = tested on: SK-MEL-5; assay: Growth inhibition of human SK-MEL-5 cells assessed as growth percentage at 1 uM incubated for 48 hrs by sulforhodamine B assay relative to control; assay type: functional; conditions: read-out: Activity
[20] = tested on: LOX IMVI; assay: Growth inhibition of human LOX IMVI cells assessed as growth percentage at 1 uM incubated for 48 hrs by sulforhodamine B assay relative to control; assay type: functional; conditions: read-out: Activity
[21] = tested on: SF-295; assay: Growth inhibition of human SF-295 cells assessed as growth percentage at 1 uM incubated for 48 hrs by sulforhodamine B assay relative to control; assay type: functional; conditions: read-out: Activity
[22] = tested on: NCI-H460; assay: Growth inhibition of human NCI-H460 cells assessed as growth percentage at 1 uM incubated for 48 hrs by sulforhodamine B assay relative to control; assay type: functional; conditions: read-out: Activity
[23] = tested on: K562; assay: Growth inhibition of human K562 cells assessed as growth percentage at 1 uM incubated for 48 hrs by sulforhodamine B assay relative to control; assay type: functional; conditions: read-out: Activity
[24] = tested on: DU-145; assay: Growth inhibition of human DU-145 cells assessed as growth percentage at 0.1 uM incubated for 48 hrs by sulforhodamine B assay relative to control; assay type: functional; conditions: read-out: Activity
[25] = tested on: PC-3; assay: Growth inhibition of human PC-3 cells assessed as growth percentage at 0.1 uM incubated for 48 hrs by sulforhodamine B assay relative to control; assay type: functional; conditions: read-out: Activity
[26] = tested on: 786-0; assay: Growth inhibition of human 786-0 cells assessed as growth percentage at 0.1 uM incubated for 48 hrs by sulforhodamine B assay relative to control; assay type: functional; conditions: read-out: Activity
[27] = tested on: UACC-257; assay: Growth inhibition of human UACC-257 cells assessed as growth percentage at 0.1 uM incubated for 48 hrs by sulforhodamine B assay relative to control; assay type: functional; conditions: read-out: Activity
[28] = tested on: M14; assay: Growth inhibition of human M14 cells assessed as growth percentage at 0.1 uM incubated for 48 hrs by sulforhodamine B assay relative to control; assay type: functional; conditions: read-out: Activity
[29] = tested on: SF-295; assay: Growth inhibition of human SF-295 cells assessed as growth percentage at 0.1 uM incubated for 48 hrs by sulforhodamine B assay relative to control; assay type: functional; conditions: read-out: Activity
[30] = tested on: HCT-15; assay: Growth inhibition of human HCT-15 cells assessed as growth percentage at 0.1 uM incubated for 48 hrs by sulforhodamine B assay relative to control; assay type: functional; conditions: read-out: Activity
[31] = tested on: CCRF-CEM; assay: Growth inhibition of human CCRF-CEM cells assessed as growth percentage at 0.1 uM incubated for 48 hrs by sulforhodamine B assay relative to control; assay type: functional; conditions: read-out: Activity
[32] = tested on: MDA-MB-231; assay: Growth inhibition of human MDA-MB-231/ATCC cells assessed as growth percentage at 0.01 uM incubated for 48 hrs by sulforhodamine B assay relative to control; assay type: functional; conditions: read-out: Activity
[33] = tested on: UO-31; assay: Growth inhibition of human UO-31 cells assessed as growth percentage at 0.01 uM incubated for 48 hrs by sulforhodamine B assay relative to control; assay type: functional; conditions: read-out: Activity
[34] = tested on: Malme-3M; assay: Growth inhibition of human Malme-3M cells assessed as growth percentage at 0.01 uM incubated for 48 hrs by sulforhodamine B assay relative to control; assay type: functional; conditions: read-out: Activity
[35] = tested on: SF-295; assay: Growth inhibition of human SF-295 cells assessed as growth percentage at 0.01 uM incubated for 48 hrs by sulforhodamine B assay relative to control; assay type: functional; conditions: read-out: Activity
[36] = tested on: SF-268; assay: Growth inhibition of human SF-268 cells assessed as growth percentage at 0.01 uM incubated for 48 hrs by sulforhodamine B assay relative to control; assay type: functional; conditions: read-out: Activity
[37] = tested on: MOLT-4; assay: Growth inhibition of human MOLT-4 cells assessed as growth percentage at 0.01 uM incubated for 48 hrs by sulforhodamine B assay relative to control; assay type: functional; conditions: read-out: Activity

Chain of Fibroblast growth factor receptor 2 (Homo sapiens) (P21802 22-821 limits assumed): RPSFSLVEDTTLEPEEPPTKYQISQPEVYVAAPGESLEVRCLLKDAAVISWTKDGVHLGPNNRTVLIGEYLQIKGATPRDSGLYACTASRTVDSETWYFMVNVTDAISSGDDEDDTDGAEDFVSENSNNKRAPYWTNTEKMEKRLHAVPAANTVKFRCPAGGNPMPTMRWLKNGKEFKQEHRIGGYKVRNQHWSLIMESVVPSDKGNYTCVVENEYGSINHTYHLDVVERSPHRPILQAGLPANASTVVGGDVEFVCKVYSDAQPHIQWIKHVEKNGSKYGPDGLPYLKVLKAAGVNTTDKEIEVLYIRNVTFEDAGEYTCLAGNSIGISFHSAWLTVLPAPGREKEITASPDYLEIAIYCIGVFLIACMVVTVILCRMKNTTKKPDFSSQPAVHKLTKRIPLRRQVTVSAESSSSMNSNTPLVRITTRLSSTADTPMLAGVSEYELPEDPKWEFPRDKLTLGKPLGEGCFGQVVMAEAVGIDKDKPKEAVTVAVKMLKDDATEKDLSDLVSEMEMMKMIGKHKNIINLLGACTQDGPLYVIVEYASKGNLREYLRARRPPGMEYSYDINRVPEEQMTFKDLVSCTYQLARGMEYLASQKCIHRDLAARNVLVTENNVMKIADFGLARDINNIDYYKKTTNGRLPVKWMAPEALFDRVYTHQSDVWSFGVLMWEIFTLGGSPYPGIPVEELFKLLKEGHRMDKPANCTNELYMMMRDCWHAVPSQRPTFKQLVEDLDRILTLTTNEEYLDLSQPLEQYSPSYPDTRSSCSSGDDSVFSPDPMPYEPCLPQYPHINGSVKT

## CCCCCCCC(=O)Nc1nc2[nH]c(CN3CCN(Cc4cccc(F)c4)CC3)c(CN3CCN(Cc4cccc(F)c4)CC3)c2c(=O)[nH]1
[1]
  growth at 10 µM: -92.4%
[2]
  growth at 10 µM: 61.6%
[3]
  inhibition: 25.9%
[4]; 48 h
  GI50: 480 nM
[4]; Homo sapiens, MDA-MB-468
  LC50 (concentration killing 50% of cells): 5310 nM
  TGI: 1840 nM
[4]; Homo sapiens, MDA-MB-468, 48 h
  GI50: 477 nM
[5]
  GI50: 1720 nM
  TGI: 4180 nM
[6]; 48 h
  GI50: 190 nM
  LC50: 990 nM
  TGI: 430 nM
[6]; Homo sapiens, MCF7, 48 h
  GI50: 186 nM
  LC50: 985 nM
  TGI: 428 nM
[7]
  GI50: 670 nM
[7]; Homo sapiens, Malme-3M
  TGI: 2240 nM
  GI50: 672 nM
[7]; Homo sapiens, Malme-3M, read-out: LC50 (the source's name)
  CC50: 6110 nM
[8]; 48 h
  GI50: 360 nM
  LC50: 100000 nM and > 1000 nM
[8]; Homo sapiens, RPMI-8226, 48 h
  GI50: 363 nM
[9]; 48 h
  GI50: 260 nM
  LC50 (concentration killing 50% of cells): > 100000 nM
  TGI: 740 nM
[9]; Homo sapiens, MOLT-4, 48 h
  GI50: 258 nM
  LC50 (concentration killing 50% of cells): 100000 nM
  TGI: 736 nM
[10]
  growth at 100 µM: -91%
[11]
  growth at 100 µM: -86%
[12]
  growth at 100 µM: -90%
[13]
  growth at 100 µM: -69%
[14]
  growth at 100 µM: -85%
[15]
  growth at 1 µM: 29%
[16]
  growth at 1 µM: -51%
[17]
  growth at 1 µM: 25%
[18]
  growth at 1 µM: 107%
[19]
  growth at 1 µM: 84%
[20]
  growth at 1 µM: -58%
[21]
  growth at 1 µM: 74%
[22]
  growth at 1 µM: 11%
[23]
  growth at 1 µM: -31%
[24]
  growth at 0.1 µM: 101%
[25]
  growth at 0.1 µM: 96%
[26]
  growth at 0.1 µM: 92%
[27]
  growth at 0.1 µM: 94%
[28]
  growth at 0.1 µM: 94%
[29]
  growth at 0.1 µM: 94%
[30]
  growth at 0.1 µM: 94%
[31]
  growth at 0.1 µM: 94%
[32]
  growth at 0.01 µM: 105%
[33]
  growth at 0.01 µM: 77%
[34]
  growth at 0.01 µM: 98%
[35]
  growth at 0.01 µM: 97%
[36]
  growth at 0.01 µM: 99%
[37]
  growth at 0.01 µM: 95%

## Nc1nc2[nH]c(CN3CCN(c4cc(Cl)cc(Cl)c4)CC3)c(CN3CCN(c4cc(Cl)cc(Cl)c4)CC3)c2c(=O)[nH]1
[1]
  growth at 10 µM: 81%
[2]
  growth at 10 µM: 64.4%
[3]
  inhibition: -0.49%
[4]; Homo sapiens, MDA-MB-468
  TGI: 3750 nM
[4]; Homo sapiens, MDA-MB-468, 48 h
  GI50: 1720 nM
[5]
  GI50: 1780 nM
  TGI: 4220 nM
[6]; Homo sapiens, MCF7, 48 h
  GI50: 1580 nM
  TGI: 3430 nM
[7]; Homo sapiens, Malme-3M
  TGI: 3930 nM
  GI50: 2000 nM
[8]; Homo sapiens, RPMI-8226
  TGI: 6920 nM
[8]; Homo sapiens, RPMI-8226, 48 h
  GI50: 2410 nM
[9]; Homo sapiens, MOLT-4, 48 h
  GI50: 2580 nM
  TGI: 8560 nM
[10]
  growth at 100 µM: -37%
[11]
  growth at 100 µM: 55%
[12]
  growth at 100 µM: -49%
[13]
  growth at 100 µM: -79%
[14]
  growth at 100 µM: -49%
[15]
  growth at 1 µM: 85%
[16]
  growth at 1 µM: 79%
[17]
  growth at 1 µM: 90%
[18]
  growth at 1 µM: 102%
[19]
  growth at 1 µM: 89%
[20]
  growth at 1 µM: 104%
[21]
  growth at 1 µM: 89%
[22]
  growth at 1 µM: 98%
[23]
  growth at 1 µM: 83%
[24]
  growth at 0.1 µM: 109%
[25]
  growth at 0.1 µM: 96%
[26]
  growth at 0.1 µM: 93%
[27]
  growth at 0.1 µM: 99%
[28]
  growth at 0.1 µM: 98%
[29]
  growth at 0.1 µM: 93%
[30]
  growth at 0.1 µM: 95%
[31]
  growth at 0.1 µM: 98%
[32]
  growth at 0.01 µM: 106%
[33]
  growth at 0.01 µM: 96%
[34]
  growth at 0.01 µM: 95%
[35]
  growth at 0.01 µM: 87%
[36]
  growth at 0.01 µM: 102%
[37]
  growth at 0.01 µM: 100%
